Values of other authors, collected in patent publication US6482863B2, “Insect repellant formulation deliverable by piezoelectric device” (S. C. Johnson & Son, Inc., priority 2000, dated 2002).

Experiments:
[1] = at 20° C.
[2] = at 25° C.

Structure (SMILES)	vapor pressure of solvent [1] [mm Hg]	viscosity of solvent [2] [cp]	water solubility [g/100 ml water]
COCC(C)O (stereo not shown) [Propylene glycol methyl ether]	8.1	–	–
COCC(C)OCC(C)OC (stereo not shown) [Dipropylene glycol dimethyl ether]	0.55	1	35
